Assay results: PubChem BioAssay AID720669 (NMMLSC, 2013)
Activity calls are given as the source filed them.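 How the source made its calls: active means visibly stopped the calcineurin reporter band on a blot from moving down to a smaller size, judged by eye; inactive means reporter band movement visibly unaltered.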

Tested on: calcineurin (human, NFAT-based CaNAR1 reporter dephosphorylation)
Test: inhibitors of CaNAR1 reporter dephosphorylation – TALL-104 cells, western blot, CherryPick01, mechanism study for lytic granule exocytosis inhibitor project (AID 720669)
Conditions: CaNAR1 dephosphorylation shift, at 12 µM, stronger effect = higher value

Row | inhibition | SMILES
1 | 0% (inactive) | O=C(CN1C(=O)/C(=C\c2cccc(Br)c2)Oc2ccccc21)NCCCN1CCOCC1
2 | 0% (inactive) | Cc1ccc(S(=O)(=O)n2ccc3c(OCCOCCNCc4ccc(F)cc4)cccc32)cc1
3 | 0% (inactive) | O=c1c2ccc(F)cc2sn1-c1ccccc1
4 | 0% (inactive) | O=CNc1cc(-c2ccsc2)cn2c(-c3ccccc3)cnc12
5 | 0% (inactive) | COc1ccc(N2C(=O)CC(Sc3nnc(-c4ccccc4)o3)C2=O)cc1 (configuration not stated)
6 | 0% (inactive) | O=C(Cn1sc2ccccc2c1=O)NC12CC3CC(CC(C3)C1)C2
7 | 0% (inactive) | O=c1c2ccccc2sn1-c1ccccc1
8 | 0% (inactive) | COc1ccc(-n2sc3ccccc3c2=O)cc1
9 | 0% (inactive) | O=C(Cn1sc2ccccc2c1=O)Nc1ccc(F)cc1
10 | 0% (inactive) | Cc1ccc(Nc2nc(NCc3ccco3)c3ccccc3n2)cc1

Further lines, the compound ahead of its results:

Row | SMILES | inhibition
11 | CCCCC[C@@H](C)N1C[C@@H](COCc2ccccc2)Oc2cc(N3CC[C@H](N(C)C)C3)ccc2S1(=O)=O | 0% (inactive)
12 | COc1ccc(-c2cc(NC=O)c3ncc(-c4cccc(OC)c4)n3c2)cc1 | 0% (inactive)
13 | CC1=NOC(=O)/C1=C/c1ccc(-c2ccc(Cl)cc2)o1 | 0% (inactive)
14 | CC1COCC(C)N1C1=C(Cl)C(=O)c2ccccc2C1=O (configuration not stated) | 100%
15 | CCN(CC)CCCNc1ccc(-c2nnc(-c3ccc(OCC(C)C)cc3)o2)cn1 | 0% (inactive)
16 | COC(=O)c1c(NC(=O)c2nc3ccccc3s2)sc2c1CC(C)(C)NC2(C)C | 0% (inactive)
17 | CCCCC[C@@H](C)N1C[C@@H](COCc2ccccc2)Oc2cc(N3CC[C@@H](N(C)C)C3)ccc2S1(=O)=O | 0% (inactive)
18 | COc1ccc(-c2cc(NC=O)c3ncc(-c4ccccc4)n3c2)cc1OC | 0% (inactive)
19 | CC(C)(c1ccccc1)c1ccc(OCC(O)CNC2CCN(Cc3ccccc3)CC2)cc1 (configuration not stated) | 0% (inactive)
20 | CCCCC[C@@H](C)N1C[C@H](COCc2ccccc2)Oc2cc(N3CC[C@@H](N(C)C)C3)ccc2S1(=O)=O | 0% (inactive)
21 | CN(C)CCNC(=O)c1ccc(-c2cn3c(-c4ccc(Oc5ccccc5)cc4)cnc3cn2)cc1 | 0% (inactive)
22 | COc1ccccc1CNc1nc(NCc2ccc(C(C)C)cc2)c2sccc2n1 | 0% (inactive)
